Source: patent publication US12377100B2 (GILEAD SCIENCES, INC., priority 2015, dated 2025)

Legend:
Assay type in all cases: cell-based
Settings in all cases: Homo sapiens, PBMC, 24 h, human PBMCs, 24 hours incubation
TNFα = assay: PBMC cytokine profiling assay, TNFα induction
Description: (§1) Certain compounds disclosed herein we tested according to the procedure described below. Additionally, certain reference compounds were prepared and tested along with the compounds of the present disclosure.
(§2) Compounds were dissolved and stored in DMSO (Sigma-Aldrich, St. Louis, MO) at 10 mM concentration.
(§3) Cryopreserved human PBMCs isolated from healthy donors were purchased from StemCell Technologies (Vancouver, Canada). Cell culture medium used was RPMI with L-Glutamine (Mediatech, Manassas, VA) supplemented with 10% fetal bovine serum (Hyclone, GE Healthcare, Logan, UT) and Penicillin-Streptomycin (Mediatech). Human TNFα, IL12p40, and IFNα2a 384-well Assay capture plates, standards, buffers and processing reagents were obtained from MesoScale Discovery Technologies (MSD; Rockville, MD).
(§4) Cryopreserved human PBMCs (1×10e8 cells/ml) were thawed at 37° C. and resuspended in 25 mL warm cell culture medium. The cells were pelleted at 200×g (Beckman Avanti J-E) for 5 min and resuspended in 20 mL of fresh culture media. Cells were counted using a Cellometer (Nexcelcom Bioscience), adjusted to 2×10e6 cells, and incubated for 2 hours in an incubator set at 37° C., 5% CO2 to recover from cryopreservation. Compounds were serially diluted in DMSO at half-log steps to generate a 10-point dose range. Using a Bravo pipette equipped with a 384 well head (Agilent), 0.4 μL of compound was transferred to each well of a 384 well black, clear bottom plate (Greiner Bio-One, Germany) containing 30 μL of cell culture medium. Recovered PBMCs were then dispensed into the assay plate at 50 μL per well (100k cells/well) using the MicroFlow multichannel dispenser (Biotek). Final DMSO concentration was 0.5%. DMSO was used as the negative control. The plates were incubated for 24 hours at 37° C. PBMCs in the assay plate were pelleted by centrifugation (Beckman Avanti J-E) at 200×g for 5 min.
(§5) Using a Biomek FX 384 well pipetting station (Beckman), conditioned culture medium (CCM) from the assay plate was transferred to MSD capture plates customized for each cytokine. For IFNα and IL12-p40 detection, 25 μL and 20 μL of CCM were added directly to each capture plate, respectively. For TNFα detection, CCM was diluted 1:9 in fresh culture medium, and 20 μL of diluted CCM was used. Serially diluted calibration standards for each cytokine were used to generate standard curves and establish assay linearity. The plates were sealed and incubated overnight at 4° C. in a plate shaker (Titer Plate) set at 200 rpm. On the following day, antibodies specific for each cytokine were diluted 1:50 in MSD Diluent 100 antibody dilution buffer. Diluted antibodies were added to corresponding capture plates at 10 μL/well, and incubated at RT for 1-2 hrs in the shaker. The plates were washed with PBST buffer (3×, 60 μl/well) using a Biotek Multiflow plate washer. MSD Read Buffer diluted to 2× in deionized water and 35 μL/well was added via Biomek FX instrument. The plates were read immediately in a MSD6000 reader. Data were normalized to positive and negative controls in each assay plate. AC50 values represent compound concentrations at half-maximal effect based on normalized percent activation and calculated by non-linear regression using Pipeline Pilot software (Accelrys, San Diego, CA).

IFNα = assay: PBMC cytokine profiling assay, IFNα induction
Description: as §1, §2, §3, §4, §5

IL12p40 = assay: PBMC cytokine profiling assay, IL12-p40 induction
Description: as §1, §2, §3, §4, §5

| Compound | AC50 (TNFα) [µM] | AC50 (IFNα) [µM] | AC50 (IL12p40) [µM] |
| --- | --- | --- | --- |
| CCCC[C@@H](CO)Nc1nc(N)nc2cccnc12 [Example 14, (S)-2-((2-aminopyrido[3,2-d]pyrimidin-4-yl)amino)hexan-1-ol] | 1.1 | 1.6 | 0.94 |
| Nc1nc(NCC2CCCO2)c2ncccc2n1 (stereo not drawn) [Example 16, N^4-((tetrahydrofuran-2-yl)methyl)pyrido[3,2-d]pyrimidine-2,4-diamine] | > 50 | > 50 | > 50 |
| Nc1nc(NC(CO)CO)c2ncccc2n1 [Example 17, 2-((2-aminopyrido[3,2-d]pyrimidin-4-yl)amino)propane-1,3-diol] | > 50 | > 50 | > 50 |
| CCC[C@@H](CO)Nc1nc(N)nc2cc(Br)cnc12 [Example 18F, (S)-2-((2-amino-7-bromopyrido[3,2-d]pyrimidin-4-yl)amino)pentan-1-ol] | 16.1 | 30.6 | 15.2 |
| CCC[C@@H](CO)Nc1nc(N)nc2cc(Cl)cnc12 [Example 19E, (S)-2-((2-amino-7-chloropyrido[3,2-d]pyrimidin-4-yl)amino)pentan-1-ol] | 3.3 | 21.6 | 2.5 |
| CCC[C@@H](CO)Nc1nc(N)nc2cc(C)cnc12 [Example 20, (S)-2-((2-amino-7-methylpyrido[3,2-d]pyrimidin-4-yl)amino)pentan-1-ol] | 3.2 | 5.4 | 2.8 |
| CCC[C@@H](CO)Nc1nc(N)nc2cc(CC)cnc12 [Example 21, (S)-2-((2-amino-7-ethylpyrido[3,2-d]pyrimidin-4-yl)amino)pentan-1-ol] | 3.1 | 4.8 | 2.3 |
| CCC[C@@H](CO)Nc1nc(N)nc2cc(C#N)cnc12 [Example 22, (S)-2-amino-4-((1-hydroxypentan-2-yl)amino)pyrido[3,2-d]pyrimidine-7-carbonitrile] | > 50 | 35.9 | > 50 |
| CCCC[C@H](CO)Nc1nc(N)nc2cc(Cl)cnc12 [Example 23C, (R)-2-((2-amino-7-chloropyrido[3,2-d]pyrimidin-4-yl)amino)hexan-1-ol] | 24.7 | > 50 | 25.7 |
| CCC[C@@H](CO)Nc1nc(N)nc2cc(F)c(Cl)nc12 [Example 24D] | 3.4 | 18.4 | 3.1 |
| CCCCNc1nc(N)nc2c(C)ccnc12 [Example 25E, N^4-butyl-8-methylpyrido[3,2-d]pyrimidine-2,4-diamine] | 20 | 12.3 | 19.7 |
| CCC[C@@H](CO)Nc1nc(N)nc2c(C)ccnc12 [Example 26E, (S)-2-((2-amino-8-methylpyrido[3,2-d]pyrimidin-4-yl)amino)pentan-1-ol] | 2.3 | 13.5 | 1.7 |
| CCC[C@@H](CO)Nc1nc(N)nc2cccnc12 [Example 27C, (S)-2-((2-amino-[3,2-d]pyrimidin-4-yl)amino)pentan-1-ol] | 0.52 | 2 | 0.42 |
| CCC[C@H](Nc1nc(N)nc2cccnc12)C(F)(F)F [Example 28, (S)—N^4-(1,1,1-trifluoropentan-2-yl)pyrido[3,2-d]pyrimidine-2,4-diamine] | 28.6 | 45 | 28.2 |
| Nc1nc(NCCCC(F)(F)F)c2ncccc2n1 [Example 29, N^4-(4,4,4-trifluorobutyl)pyrido[3,2-d]pyrimidine-2,4-diamine] | 18.3 | 3.9 | 15.5 |
| CCC[C@H](Nc1nc(N)nc2cccnc12)C(N)=O [Example 30B, (S)-2-((2-aminopyrido[3,2-d]pyrimidin-4-yl)amino)pentanamide] | 10.6 | > 50 | 8.6 |

| Compound | AC50 (TNFα) [µM] | AC50 (IFNα) [µM] | AC50 (IL12p40) [µM] |
| --- | --- | --- | --- |
| CCC[C@H](Nc1nc(N)nc2cccnc12)C(=O)NC [Example 31, (S)-2-((2-aminopyrido[3,2-d]pyrimidin-4-yl)amino)-N-methylpentanamide] | 4.7 | 32.9 | 4.7 |
| CCCCNc1nc(N)nc2ccc(C(F)(F)F)nc12 [Example 32, N^4-butyl-6-(trifluoromethyl)pyrido[3,2-d]pyrimidine-2,4-diamine] | > 50 | > 50 | > 50 |
| CCC[C@@H](CO)Nc1nc(N)nc2ccc(C)nc12 [Example 33, (S)-2-((2-amino-6-methylpyrido[3,2-d]pyrimidin-4-yl)amino)pentan-1-ol] | 0.92 | 5.9 | 0.85 |
| CCC[C@H](Nc1nc(N)nc2cccnc12)C(=O)NCCO [Example 34, (S)-2-((2-aminopyrido[3,2-d]pyrimidin-4-yl)amino)-N-(2-hydroxyethyl)pentanamide] | 12.2 | > 50 | 10.9 |
| CCC[C@H](Nc1nc(N)nc2cccnc12)C(=O)NCC(C)(C)O [Example 35, (S)-2-((2-aminopyrido[3,2-d]pyrimidin-4-yl)amino)-N-(2-hydroxy-2-methylpropyl)pentanamide] | 39.4 | > 50 | 22.6 |
| CCC[C@H](Nc1nc(N)nc2cccnc12)C(=O)NCCN [Example 36, (S)—N-(2-aminoethyl)-2-((2-aminopyrido[3,2-d]pyrimidin-4-yl)amino)pentanamide] | 21.5 | > 50 | 10.8 |
| CCC[C@H](Nc1nc(N)nc2cccnc12)C(=O)NCc1ccccn1 [Example 37, (S)-2-((2-aminopyrido[3,2-d]pyrimidin-4-yl)amino)-N-(pyridin-2-ylmethyl)pentanamide] | > 50 | > 50 | > 50 |
| CCC[C@H](CO)Nc1nc(N)nc2ccc(C)nc12 [Example 38C, (R)-2-((2-amino-6-methylpyrido[3,2-d]pyrimidin-4-yl)amino)pentan-1-ol] | > 50 | > 50 | > 50 |
| CCCC[C@H](CO)Nc1nc(N)nc2ccc(C)nc12 [Example 39C, (R)-2-((2-amino-6-methylpyrido[3,2-d]pyrimidin-4-yl)amino)hexan-1-ol] | > 50 | > 50 | 41.5 |
| CCCC[C@@H](CO)Nc1nc(N)nc2ccc(C)nc12 [Example 40C, (S)-2-((2-amino-6-methylpyrido[3,2-d]pyrimidin-4-yl)amino)hexan-1-ol] | 0.94 | 2.4 | 0.87 |
| CCCCNc1nc(N)nc2cc(Cl)cnc12 [Example 41, N^4-butyl-7-chloropyrido[3,2-d]pyrimidine-2,4-diamine] | 11 | 13 | 9.1 |
| CCC[C@@H](CO)Nc1nc(N)nc2cc(OC)cnc12 [Example 42B, (S)-2-((2-amino-7-methoxypyrido[3,2-d]pyrimidin-4-yl)amino)pentan-1-ol] | 1.1 | 3.6 | 0.9 |
| CCC[C@@H](CO)Nc1nc(N)nc2cc(F)cnc12 [Example 43C, (S)-2-((2-amino-7-fluoropyrido[3,2-d]pyrimidin-4-yl)amino)pentan-1-ol] | 1.1 | 10.9 | 1 |
| CCCC[C@H](CO)Nc1nc(N)nc2cc(F)cnc12 [Example 44, (R)-2-((2-amino-7-fluoropyrido[3,2-d]pyrimidin-4-yl)amino)hexan-1-ol] | 3 | > 50 | 2.4 |
| CCCC[C@@H](CO)Nc1nc(N)nc2cc(F)cnc12 [Example 45, (S)-2-((2-amino-7-fluoropyrido[3,2-d]pyrimidin-4-yl)amino)hexan-1-ol] | 1.6 | 8.3 | 1.3 |
| CCCC[C@H](CO)Nc1nc(N)nc2cc(F)c(F)cc12 [Example 46C, (R)-2-((2-amino-6,7-difluoroquinazolin-4-yl)amino)hexan-1-ol] | 28.6 | > 50 | 28.5 |
